The compounds below were run on RS4;11 cells (assay: Cell growth inhibition, 4-day proliferation assay (WST-8)). Settings: Homo sapiens, 96 h; RS4;11 cells, 4 days, WST-8; read-out: RS4; 11 Cells IC50.
Format: cell-based
Procedure: The effect of representative Compounds of the Disclosure on cell viability was determined in a 4-day proliferation assay. Cells were maintained in the appropriate culture medium with 10% FBS at 37° C. and an atmosphere of 5% CO2. Also, the effect of a MDM2 inhibitor (Cpd. A; see Compound Example No. 22 of U.S. Pat. No. 8,629,141) and a known MDM2 degrader (Cpd. D, see Cpd. No. 175 of WO 2017/0176957) on cell viability in various cell lines is also included in Table 5. Cpd. […] A and D. The structure of Cpd. A is:
Cells were seeded in 96-well flat bottom (Corning COSTAR, Corning, N.Y., cat #3595) at a density of 2,000-3,000 cells/well in 100 μL of culture medium. Compounds were serially diluted in the appropriate medium, and 100 μL of the diluted compounds were added to the appropriate wells of the cell plate. After the addition of compounds, the cells were incubated at 37° C. in an atmosphere of 5% CO2 for 4 days. Cell viability was determined using the WST (2-(2-methoxy-4-nitrophenyl)-3-(4-nitrophenyl)-5-(2,4-disulfophenyl)-2H-tetrazolium, monosodium salt) Cell Counting-8 Kit (Dojindo Molecular Technologies, Inc., Rockville, Md.) according to the manufacturers' instructions.
WST-8 reagent was added to each well at a final concentration of 10% (v/v), and then the plates were incubated at 37° C. for 1-2 hours for color development. The absorbance was measured at 450 nm using a SPECTRAmax PLUS plate reader (Molecular Devices, Sunnyvale, Calif.). The readings were normalized to the DMSO-treated cells and the half maximal inhibitory concentration (IC50) was calculated by nonlinear regression (four parameters sigmoid fitted with variable slope, least squares fit, and no constraint) analysis using the GraphPad Prism 5 software (GraphPad Software, La Jolla, Calif.).

Compared with O=C1CCC(N2Cc3c(NC4CCN(CCCNC(=O)C56CCC(NC(=O)[C@@H]7NC8(CCCCC8)[C@@]8(C(=O)Nc9cc(Cl)ccc98)[C@H]7c7cccc(Cl)c7F)(CC5)CC6)CC4)cccc3C2=O)C(=O)N1 (stereo partly drawn) [Cpd. No. 1, (3′R,4′S,5′R)-6″-chloro-4′-(3-chloro-2-fluorophenyl)-N-(4-((3-(4-((2-(2,6-dioxopiperidin-3-yl)-1-oxoisoindolin-4-yl)amino)piperidin-1-yl)propyl)carbamoyl)bicyclo[2.2.2]octan-1-yl)-2″-oxodispiro[cyclohexane-1,2′-pyrrolidine-3′,3″-indoline]-5′-carboxamide], CC1(C)CCC2(CC1)N[C@@H](C(=O)NC13CCC(C(=O)N4CCC(C#Cc5cccc6c5CN(C5CCC(=O)NC5=O)C6=O)CC4)(CC1)CC3)[C@H](c1cccc(Cl)c1F)[C@]21C(=O)Nc2cc(Cl)ccc21 (stereo partly drawn) [Cpd. No. 13, (3′R,4′S,5′R)-6″-chloro-4′-(3-chloro-2-fluorophenyl)-N-(4-(4-((2-(2,6-dioxopiperidin-3-yl)-1-oxoisoindolin-4-yl)ethynyl)piperidine-1-carbonyl)bicyclo[2.2.2]octan-1-yl)-4,4-dimethyl-2″-oxodispiro[cyclohexane-1,2′-pyrrolidine-3′,3″-indoline]-5′-] is 2.5-fold higher in IC50: 2.4 nM for the first, 6 nM for the second.

Going from CC(C)(C)C[C@@H]1N[C@@H](C(=O)N[C@H]2CC[C@H](C(=O)NCCCC#Cc3cccc4c3CN(C3CCC(=O)NC3=O)C4=O)CC2)[C@H](c2cccc(Cl)c2F)[C@]12C(=O)Nc1cc(Cl)ccc12 (stereo partly drawn) [Cpd. No. 3, (2′S,3R,4′S,5′R)-6-chloro-4′-(3-chloro-2-fluorophenyl)-N-((1r,4R)-4-((5-(2-(2,6-dioxopiperidin-3-yl)-1-oxoisoindolin-4-yl)pent-4-yn-1-yl)carbamoyl)cyclohexyl)-2′-neopentyl-2-oxospiro[indoline-3,3′-pyrrolidine]-5′-carboxamide] to CC1(C)CCC2(CC1)N[C@@H](C(=O)NC1CCN(CC(=O)NCCCC#Cc3cccc4c3CN(C3CCC(=O)NC3=O)C4=O)CC1)[C@H](c1cccc(Cl)c1F)[C@]21C(=O)Nc2cc(Cl)ccc21 (stereo partly drawn) [Cpd. No. 8, (3′R,4′S,5′R)-6″-chloro-4′-(3-chloro-2-fluorophenyl)-N-(1-(2-((5-(2-(2,6-dioxopiperidin-3-yl)-1-oxoisoindolin-4-yl)pent-4-yn-1-yl)amino)-2-oxoethyl)piperidin-4-yl)-4,4-dimethyl-2″-oxodispiro[cyclohexane-1,2′-pyrrolidine-3′,3″-indoline]-5′-carboxamide], the IC50 rises from 0.62 nM to 4.5 nM (7.3-fold).

Going from O=C1CCC(N2Cc3c(C#CC4CCN(C(=O)CN5CCC(NC(=O)[C@@H]6NC7(CCCCC7)[C@@]7(C(=O)Nc8cc(Cl)ccc87)[C@H]6c6cccc(Cl)c6F)CC5)CC4)cccc3C2=O)C(=O)N1 (stereo partly drawn) [Cpd. No. 5, (3′R,4′S,5′R)-6″-chloro-4′-(3-chloro-2-fluorophenyl)-N-(1-(2-(4-((2-(2,6-dioxopiperidin-3-yl)-1-oxoisoindolin-4-yl)ethynyl)piperidin-1-yl)-2-oxoethyl)piperidin-4-yl)-2″-oxodispiro[cyclohexane-1,2′-pyrrolidine-3′,3″-indoline]-5′-carboxamide] to O=C1CCC(N2Cc3c(C#CC4CCN(C(=O)CN5CCN(C(=O)[C@@H]6NC7(CCCCC7)[C@@]7(C(=O)Nc8cc(Cl)ccc87)[C@H]6c6cccc(Cl)c6F)CC5)CC4)cccc3C2=O)C(=O)N1 (stereo partly drawn) [Cpd. No. 7, 3-(4-((1-(2-(4-((3′R,4′S,5′R)-6″-chloro-4′-(3-chloro-2-fluorophenyl)-2″-oxodispiro[cyclohexane-1,2′-pyrrolidine-3′,3″-indoline]-5′-carbonyl)piperazin-1-yl)acetyl)piperidin-4-yl)ethynyl)-1-oxoisoindolin-2-yl)piperidine-2,6-dione], the IC50 rises from 3.1 nM to > 100 nM. The first is the more potent here.

Going from CN1[C@@H](C(=O)N[C@H]2CC[C@H](C(=O)N3CCC(C#Cc4cccc5c4CN(C4CCC(=O)NC4=O)C5=O)CC3)CC2)[C@H](c2cccc(Cl)c2F)[C@]2(C(=O)Nc3cc(Cl)ccc32)C12CCCCC2 (stereo partly drawn) [Cpd. No. 9, (3′R,4′S,5′R)-6″-chloro-4′-(3-chloro-2-fluorophenyl)-N-((1r,4R)-4-(4-((2-(2,6-dioxopiperidin-3-yl)-1-oxoisoindolin-4-yl)ethynyl)piperidine-1-carbonyl)cyclohexyl)-1′-methyl-2″-oxodispiro[cyclohexane-1,2′-pyrrolidine-3′,3″-indoline]-5′-carboxamide] to CN1[C@@H](C(=O)N(C)[C@H]2CC[C@H](C(=O)N3CCC(C#Cc4cccc5c4CN(C4CCC(=O)NC4=O)C5=O)CC3)CC2)[C@H](c2cccc(Cl)c2F)[C@]2(C(=O)Nc3cc(Cl)ccc32)C12CCCCC2 (stereo partly drawn) [Cpd. No. 16, (3′R,4′S,5′R)-6″-chloro-4′-(3-chloro-2-fluorophenyl)-N-((1r,4R)-4-(4-((2-(2,6-dioxopiperidin-3-yl)-1-oxoisoindolin-4-yl)ethynyl)piperidine-1-carbonyl)cyclohexyl)-N,1′-dimethyl-2″-oxodispiro[cyclohexane-1,2′-pyrrolidine-3′,3″-indoline]-5′-carboxamide], the IC50 rises from 2.8 nM to > 100 nM.

Going from CN1[C@@H](C(=O)NC23CCC(C(=O)N4CCC(C#Cc5cccc6c5CN(C5CCC(=O)NC5=O)C6=O)CC4)(CC2)CC3)[C@H](c2cccc(Cl)c2F)[C@]2(C(=O)Nc3cc(Cl)ccc32)C12CCCCC2 (stereo partly drawn) [Cpd. No. 10, (3′R,4′S,5′R)-6″-chloro-4′-(3-chloro-2-fluorophenyl)-N-(4-(4-((2-(2,6-dioxopiperidin-3-yl)-1-oxoisoindolin-4-yl)ethynyl)piperidine-1-carbonyl)bicyclo[2.2.2]octan-1-yl)-1 ′-methyl-2″-oxodispiro[cyclohexane-1,2′-pyrrolidine-3′,3″-indoline]-5′-carboxamide] to O=C1CCC(N2Cc3c(C#CC4CCN(C(=O)C56CC(NC(=O)[C@@H]7NC8(CCCCC8)[C@@]8(C(=O)Nc9cc(Cl)ccc98)[C@H]7c7cccc(Cl)c7F)(C5)C6)CC4)cccc3C2=O)C(=O)N1 (stereo partly drawn) [Cpd. No. 11, (3′R,4′S,5′R)-6″-chloro-4′-(3-chloro-2-fluorophenyl)-N-(3-(4-((2-(2,6-dioxopiperidin-3-yl)-1-oxoisoindolin-4-yl)ethynyl)piperidine-1-carbonyl)bicyclo[1.1.1]pentan-1-yl)-2″-oxodispiro[cyclohexane-1,2′-pyrrolidine-3′,3″-indoline]-5′-carboxamide], the IC50 falls from 8 nM to 0.3 nM (27-fold). The second is the more potent here.

First: O=C1CCC(N2Cc3c(C#CC4CCN(C(=O)[C@H]5C[C@H](NC(=O)[C@@H]6NC7(CCCCC7)[C@@]7(C(=O)Nc8cc(Cl)ccc87)[C@H]6c6cccc(Cl)c6F)C5)CC4)cccc3C2=O)C(=O)N1 (stereo partly drawn) [Cpd. No. 12, (3′R,4′S,5′R)-6″-chloro-4′-(3-chloro-2-fluorophenyl)-N-((1r,3R)-3-(4-((2-(2,6-dioxopiperidin-3-yl)-1-oxoisoindolin-4-yl)ethynyl)piperidine-1-carbonyl)cyclobutyl)-2″-oxodispiro[cyclohexane-1,2′-pyrrolidine-3′,3″-indoline]-5′-carboxamide]
Second: O=C1CCC(N2Cc3c(C#CC4CCN(C(=O)C5CCN(C(=O)[C@@H]6NC7(CCCCC7)[C@@]7(C(=O)Nc8cc(Cl)ccc87)[C@H]6c6cccc(Cl)c6F)CC5)CC4)cccc3C2=O)C(=O)N1 (stereo partly drawn) [Cpd. No. 23, 3-(4-((1-(1-((3′R,4′S,5′R)-6″-chloro-4′-(3-chloro-2-fluorophenyl)-2″-oxodispiro[cyclohexane-1,2′-pyrrolidine-3′,3″-indoline]-5′-carbonyl)piperidine-4-carbonyl)piperidin-4-yl)ethynyl)-1-oxoisoindolin-2-yl)piperidine-2,6-dione]
The IC50 of the first is lower: 1.4 nM for the first, > 100 nM for the second.

Going from CN(C(=O)[C@@H]1NC2(CCCCC2)[C@@]2(C(=O)Nc3cc(Cl)ccc32)[C@H]1c1cccc(Cl)c1F)[C@H]1CC[C@H](C(=O)N2CCC(C#Cc3cccc4c3CN(C3CCC(=O)NC3=O)C4=O)CC2)CC1 (stereo partly drawn) [Cpd. No. 15, (3′R,4′S,5′R)-6″-chloro-4′-(3-chloro-2-fluorophenyl)-N-((1r,4R)-4-(4-((2-(2,6-dioxopiperidin-3-yl)-1-oxoisoindolin-4-yl)ethynyl)piperidine-1-carbonyl)cyclohexyl)-N-methyl-2″-oxodispiro[cyclohexane-1,2′-pyrrolidine-3′,3″-indoline]-5′-carboxamide] to CCN1[C@@H](C(=O)N2CCC(C(=O)N3CCC(C#Cc4cccc5c4CN(C4CCC(=O)NC4=O)C5=O)CC3)CC2)[C@H](c2cccc(Cl)c2F)[C@]2(C(=O)Nc3cc(Cl)ccc32)C12CCCCC2 (stereo partly drawn) [Cpd. No. 22, 3-(4-((1-(1-((3′R,4′S,5′R)-6″-chloro-4′-(3-chloro-2-fluorophenyl)-1′-ethyl-2″-oxodispiro[cyclohexane-1,2′-pyrrolidine-3′,3″-indoline]-5′-carbonyl)piperidine-4-carbonyl)piperidin-4-yl)ethynyl)-1-oxoisoindolin-2-yl)piperidine-2,6-dione], the IC50 rises from 60 nM to > 100 nM.
